Consider 22 molecules from PubChem BioAssay (NCI).

Some test systems named below: UO-31 renal; NCI-H522 lung; SF-268 CNS; KM12 colon; TK-10 renal; HOP-62 NSCLC; EKVX NSCLC; SW-620 colon; UACC-62 melanoma.
What all share (assay): DTP human tumour cell line panel, 48 h

Molecules are shown by their SMILES.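 Assay format: 96-well plates, 48-hour exposure. GI50 marks 50% less growth. The concentration for full growth arrest is given as TGI.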 A value given as a limit tells only on which side of the number the result lay.

What is called TGI is the concentration at which net growth stops. One may read the GI50 as the concentration giving 50% growth inhibition.

Take `COC(=O)/C(=C\c1ccc(N(CCC#N)CCC#N)cc1)NC(=O)c1cc([N+](=O)[O-])ccc1Cl`: the total growth inhibition concentration (TGI) with UO-31 renal, in the test with NCI-H522 lung, in the test on SF-268 CNS, with KM12 colon, in the test with TK-10 renal and with HOP-62 NSCLC was > 100 µM each time. The TGI with EKVX NSCLC, in the test on SW-620 colon and with UACC-62 melanoma was > 100 µM in each case.

In the case of `O=C(O)CN(c1ccccc1)S(=O)(=O)c1ccc([N+](=O)[O-])cc1`, the TGI in the test on UO-31 renal, in the test on NCI-H522 lung, in the test on KM12 colon, in the test on TK-10 renal, in the test with EKVX NSCLC and in the test with SW-620 colon was > 100 µM throughout. Also, in the test on UACC-62 melanoma, the TGI was > 100 µM.

Consider `CCOc1ccccc1NC(=O)C(=O)Cc1nc2ccccc2s1`, for which the TGI in the test with UO-31 renal, in the test on NCI-H522 lung, with SF-268 CNS, in the test with KM12 colon, in the test on TK-10 renal and in the test with HOP-62 NSCLC was > 100 µM in each case. In addition, the TGI with EKVX NSCLC, with SW-620 colon and in the test with UACC-62 melanoma was > 100 µM in each case.

Consider `CC(C(=O)n1c2ccccc2c2ccccc21)N(c1ccccc1)c1ccccc1` (stereo unspecified), for which the TGI came out at 35.1 µM in the test on UO-31 renal; 6.48 µM in the test on NCI-H522 lung; 36.2 µM in the test with SF-268 CNS; 34.5 µM with TK-10 renal; 32 µM with HOP-62 NSCLC; 38.8 µM in the test on EKVX NSCLC. For the same molecule, the TGI with SW-620 colon was 36 µM; in the test with UACC-62 melanoma it was 31.7 µM.

In the case of `CC(=O)OCCOCNC(=S)N/N=C/c1ccc(Br)s1`, the TGI in the test with UO-31 renal, in the test with NCI-H522 lung, in the test on SF-268 CNS, in the test on KM12 colon, in the test on TK-10 renal and with HOP-62 NSCLC was > 100 µM throughout. The TGI with EKVX NSCLC, with SW-620 colon and in the test with UACC-62 melanoma was > 100 µM throughout.

Regarding `CC(=O)OC1C2CCC1C1C2C2(Cl)C(Cl)=C(Cl)C1(Cl)C2(Cl)Cl` (stereo unspecified), the concentration for total growth inhibition (TGI) in the test on UO-31 renal came to 25.2 µM; with NCI-H522 lung, 25 µM; in the test with SF-268 CNS, 32.6 µM; in the test with KM12 colon it was 27.6 µM; in the test with TK-10 renal it was 28.8 µM; in the test on HOP-62 NSCLC, 29 µM. In addition, the TGI in the test on EKVX NSCLC worked out at 24.1 µM; with SW-620 colon, 28.4 µM; in the test with UACC-62 melanoma, 27 µM.

Take `COC(=O)c1cccc2cccc(C(=O)Nc3ccc(Cl)cc3)c12`: the TGI in the test on UO-31 renal was > 100 µM; in the test with NCI-H522 lung it was > 91 µM; in the test with SF-268 CNS, > 100 µM; with KM12 colon, > 100 µM; in the test on TK-10 renal, > 100 µM; with HOP-62 NSCLC it was > 100 µM. In addition, the results for the TGI in the test on EKVX NSCLC and with SW-620 colon were > 100 µM and > 66.8 µM, respectively.

For the molecule `OCC(O)CNc1ccnc2cc(Cl)ccc12` (stereo unspecified), the concentration for total growth inhibition (TGI) with UO-31 renal, in the test on NCI-H522 lung, with SF-268 CNS, in the test with KM12 colon, with TK-10 renal and with HOP-62 NSCLC was > 100 µM each time. Moreover, the TGI in the test on EKVX NSCLC, with SW-620 colon and with UACC-62 melanoma was > 100 µM each time.

For the molecule `N.N.NCCCCCCCCCN.O=C([O-])CC(=O)[O-].O=C([O-])CC(=O)[O-].[Pt+4].[Pt+4]`, the GI50 was > 100 µM in the test with UO-31 renal; 67.5 µM in the test on NCI-H522 lung; > 100 µM in the test on SF-268 CNS; > 100 µM in the test with KM12 colon; > 100 µM in the test with TK-10 renal; > 100 µM with HOP-62 NSCLC. Moreover, the GI50 in the test with EKVX NSCLC was > 100 µM; in the test with SW-620 colon, 66.4 µM; in the test with UACC-62 melanoma, 23.1 µM. In addition, the TGI in the test on UO-31 renal, with NCI-H522 lung, in the test on SF-268 CNS, in the test with KM12 colon, in the test on TK-10 renal and in the test on HOP-62 NSCLC was > 100 µM in each case. Moreover, the TGI in the test with EKVX NSCLC, in the test with SW-620 colon and in the test on UACC-62 melanoma was > 100 µM each time.

Regarding `Cc1cccc(N=C2NC(=O)C(CC(=O)Nc3cccc(C)c3C)S2)c1` (stereo unspecified), the TGI in the test with UO-31 renal, in the test on SF-268 CNS, with KM12 colon, in the test with TK-10 renal, in the test on HOP-62 NSCLC and with EKVX NSCLC was > 100 µM throughout. For the same molecule, the TGI in the test with SW-620 colon and in the test on UACC-62 melanoma was > 100 µM in each case.

For the molecule `c1ccc(CSc2nc3ccccc3nc2-c2cccs2)cc1`, the total growth inhibition concentration (TGI) with UO-31 renal, with NCI-H522 lung, with SF-268 CNS, in the test with KM12 colon, in the test on TK-10 renal and with HOP-62 NSCLC was > 100 µM each time. The TGI with EKVX NSCLC is > 100 µM.

In the case of `[F][Sn]([F])([c]1ccccc1)[c]1ccccc1`, the GI50 with UO-31 renal was 1.92 µM; in the test with SF-268 CNS, 1.84 µM; with KM12 colon it was 1.7 µM; with TK-10 renal, 1.89 µM; in the test with HOP-62 NSCLC it was 2.32 µM; in the test on EKVX NSCLC it was 1.83 µM. Also, the GI50 in the test on SW-620 colon was 1.36 µM; in the test on UACC-62 melanoma it was 1.77 µM. Also, the total growth inhibition concentration (TGI) in the test with UO-31 renal was 3.34 µM; in the test with SF-268 CNS, 3.78 µM; in the test with KM12 colon it was 3.43 µM; with TK-10 renal, 3.44 µM; in the test on HOP-62 NSCLC it was 4.85 µM; in the test on EKVX NSCLC, 3.96 µM. Moreover, the TGI was found to be 3.02 µM with SW-620 colon and 5.15 µM with UACC-62 melanoma.

`CCCCc1c2c(nc3c1CCC/C3=C\c1ccccc1)/C(=C/c1ccccc1)CCC2`: the TGI in the test on UO-31 renal, with NCI-H522 lung, with SF-268 CNS, in the test on KM12 colon, in the test on TK-10 renal and in the test with HOP-62 NSCLC was > 100 µM in each case. Also, the TGI in the test on EKVX NSCLC, in the test with SW-620 colon and with UACC-62 melanoma was > 100 µM in each case.

Consider `CN(C)CCSc1nccc(-c2cc3ccccc3s2)n1`, for which the TGI is 47.6 µM in the test on UO-31 renal; 36.7 µM in the test with NCI-H522 lung; 48.2 µM in the test on KM12 colon; 52.7 µM in the test on HOP-62 NSCLC; 36.7 µM in the test on SW-620 colon; 40.4 µM in the test with UACC-62 melanoma.

`CC1=C(c2cc(C(=O)Nc3ccc(Cl)cc3)nc(=S)[nH]2)Sc2ccccc2N1`: the TGI with UO-31 renal, with NCI-H522 lung, with SF-268 CNS, with KM12 colon, with TK-10 renal and in the test with HOP-62 NSCLC was > 100 µM each time. Besides, the TGI with EKVX NSCLC, in the test with SW-620 colon and with UACC-62 melanoma was > 100 µM throughout.

With `CCOC(=O)/C(=C/c1cccc(C#N)c1)N(CC)CC`, the TGI in the test on UO-31 renal, in the test with NCI-H522 lung, with SF-268 CNS, in the test with KM12 colon, with TK-10 renal and with HOP-62 NSCLC was > 100 µM in each case. Further, the TGI with EKVX NSCLC, in the test with SW-620 colon and with UACC-62 melanoma was > 100 µM each time.

Regarding `O=c1nc(-c2ccccc2)cc(-c2ccccc2O)[nH]1`, the TGI with UO-31 renal, with NCI-H522 lung, in the test on SF-268 CNS, with KM12 colon, in the test with TK-10 renal and in the test with HOP-62 NSCLC was > 100 µM in each case. Further, the TGI in the test with EKVX NSCLC, with SW-620 colon and in the test on UACC-62 melanoma was > 100 µM each time.

As to `O=c1c2ccccc2nc(-c2ccccc2)n1NC(=S)Nc1ccccc1`, the TGI with UO-31 renal, in the test on NCI-H522 lung, with SF-268 CNS, in the test on KM12 colon, in the test on TK-10 renal and in the test with HOP-62 NSCLC was > 100 µM throughout. Besides, the concentration for total growth inhibition (TGI) with SW-620 colon and in the test with UACC-62 melanoma was > 100 µM in each case.

With `CC(C)(C)OC(=O)N1N=NC2C1C1CC(OCc3ccccc3)(OCc3ccccc3)C2O1` (stereo unspecified), the TGI with UO-31 renal is > 100 µM; in the test on SF-268 CNS, > 100 µM; with KM12 colon, > 100 µM; in the test with HOP-62 NSCLC, > 100 µM; with SW-620 colon it was 47.6 µM; in the test with UACC-62 melanoma, > 100 µM.

`Oc1ccc(Br)cc1C=Nc1ccc(N=Cc2cc(Br)ccc2O)cc1`: the TGI in the test with UO-31 renal, with SF-268 CNS, in the test with KM12 colon, in the test with TK-10 renal, with EKVX NSCLC and with SW-620 colon was > 100 µM throughout.

With `CC1=C(C(=O)NNS(=O)(=O)c2ccc(C)cc2)CC(C(=O)NNS(=O)(=O)c2ccc(C)cc2)=C(C)N1`, the TGI with UO-31 renal, in the test on NCI-H522 lung, in the test on SF-268 CNS, with KM12 colon, with TK-10 renal and with HOP-62 NSCLC was > 100 µM each time. Moreover, the TGI was > 100 µM with EKVX NSCLC, > 100 µM in the test on SW-620 colon and 47.2 µM in the test with UACC-62 melanoma.

With `OCCNCCOc1ccc(/C(=C(/Cl)c2ccccc2)c2ccccc2)cc1`, the TGI in the test with UO-31 renal was 22.2 µM; in the test on NCI-H522 lung it was 28.8 µM; with KM12 colon, 13.5 µM; in the test with TK-10 renal it was 15.9 µM; in the test on HOP-62 NSCLC, 31.4 µM; in the test with EKVX NSCLC it was 28.6 µM. Moreover, the TGI in the test on SW-620 colon turned out to be 17.3 µM; in the test with UACC-62 melanoma, 26.7 µM.
